These are literature values, as cited in patent US7410504B2, “Adducts based on cyclic compounds and the use thereof as tanning agents and curing agents” (BASF Aktiengesellschaft, priority 2003, dated 2008).

For the data set the following is noted: small amounts of glutaraldehyde, from 0.5 to 0.9% by weight based on the pelt weight.

Regarding `O=CCCCC=O` [glutaraldehyde], the Shrinkage temperature is at most 70 °C.
